Experiments:
[1] = tested on: hair follicles of dorsal skin tissues; experiment: Histological analysis (H&E) of dorsal skin hair follicles in CYP-induced alopecia mice; assay type: in vivo, C57BL/6J mice; settings: topical decursin, FIG. 2
Method: (§1) All animal testing procedures were approved by the Laboratory Animal Care and Use Committee of Kyung Hee University (KHUASP(SE)-13-046). 5-week-old male C57BL/6J mice were purchased from Raonbio Co., Ltd. (Yongin, Korea). All mice were kept in plastic cages at 22±1° C. under 50±5% humidity with 12 hours of light-dark cycles. After 1 week of adaptation, mice were randomly assigned to 6 groups: (1) CTR, normal control group, (2) CYP, cyclophosphamide-induced alopecia group, (3) DEX, dexamethasone (DEX) treated in CYP-induced alopecia mice as positive controls, (4) D1, 1 μM decursin treated in CYP-induced alopecia mice, (5) D10, 10 μM decursin treated in CYP-induced alopecia mice, and (6) D100, 100 μM decursin treated in CYP-induced alopecia mice.
(§2) To synchronize the phases of the hair growth cycle, the dark hairs on the dorsal skin of all mice except the CTR group were shaved on day 0 using a shaving cream. 9 days later, 150 mg/kg of CYP (Sigma-Aldrich, MO, USA) was dissolved in saline and injected one time intraperitoneally into all mice except the CTR group. Injection of CYP induced the stage of hair follicles to turn into dystrophic catagen. From day 9 to day 16, 100 μL of 1, 10 and 100 μM decursin (Sigma-Aldrich) in saline containing 0.1% dimethyl sulfoxide was topically treated onto the shaved dorsal skin once a day. […]

[2] = tested on: caspase-3; experiment: Immunoblotting of caspase-3 in TNF-α-stimulated HaCaT keratinocytes; assay type: cell-based, Human; settings: HaCaT cells; 10 nM decursin; 100 ng/mL TNF-α, 24 hours; FIG. 5
Method: (§3) Human keratinocyte HaCaT cells were grown at 37° C. under atmosphere with 95% humidity in the presence of 5% CO2, in Dulbecco's modified Eagle's medium (DMEM, Gibco; Thermo Fisher Scientific, Inc., Waltham, Mass., USA) supplemented with 10% v/v fetal bovine serum (FBS, Gibco), 2 mM glutamine, 100 IU/ml penicillin, and 100 μg/mL of streptomycin (Gibco). HaCaT cells were dispensed into 6-well plates by 1×10^6 cells/wells. After stabilization, 1 μM DEX and 0.1, 1, and 10 nM decursin were treated in the presence of 100 ng/mL of TNF-α for 24 hours.
(§4) Proteins were extracted from the collected skin tissues and HaCaT cells using RIPA lysis buffer (Tech & Innovation, Gangwon, Korea) containing a protease inhibitor cocktail (Roche, Hoffmann, USA). Lysates were quantified by the Bradford method and denatured with dodecyl sulfate buffer at 98° C. for 5 minutes. Proteins were electrophoresed onto a polyvinylidene fluoride membrane. The membranes were incubated continuously with primary anti-caspase-3, -7, and -8, followed with secondary HRP-conjugated anti-rabbit and anti-mouse antibodies.

[3] = tested on: CYP-induced alopecia mice; experiment: Skin monitoring of hair growth with a digital dermatoscope in CYP-induced alopecia mice; assay type: in vivo, C57BL/6J mice; settings: topical, all concentrations of decursin (1, 10, 100 μM) or 0.1% DEX, FIG. 1
Method: as §1, §2

[4] = tested on: AKT; experiment: Expression of AKT in decursin-treated keratinocytes; assay type: cell-based, Human; settings: TNF-α
[5] = tested on: caspase-8; experiment: Immunoblotting of caspase-8 in TNF-α-stimulated HaCaT keratinocytes; assay type: cell-based, Human; settings: HaCaT cells; 10 nM decursin; 100 ng/mL TNF-α, 24 hours; FIG. 5
Method: as §3, §4

[6] = tested on: ERK; experiment: Expression of ERK in decursin-treated keratinocytes; assay type: cell-based, Human; settings: TNF-α
[7] = tested on: p38; experiment: Expression of p38 in decursin-treated keratinocytes; assay type: cell-based, Human; settings: TNF-α
[8] = tested on: caspase-7; experiment: Immunoblotting of caspase-7 in TNF-α-stimulated HaCaT keratinocytes; assay type: cell-based, Human; settings: HaCaT cells; 10 nM decursin; 100 ng/mL TNF-α, 24 hours; FIG. 5
Method: as §3, §4

[9] = tested on: keratinocyte growth factor (KGF); experiment: Immunofluorescence assay of KGF+ expression in dorsal skin tissue of CYP-induced alopecia mice; assay type: in vivo, C57BL/6J mice; settings: CIA mice, FIG. 3
Method: as §1
To synchronize the phases of the hair growth cycle, the dark hairs on the dorsal skin of all mice except the CTR group were shaved on day 0 using a shaving cream. 9 days later, 150 mg/kg of CYP (Sigma-Aldrich, MO, USA) was dissolved in saline and injected one time intraperitoneally into all mice except the CTR group. Injection of CYP induced the stage of hair follicles to turn into dystrophic catagen. From day 9 to day 16, 100 μL of 1, 10 and 100 μM decursin (Sigma-Aldrich) in saline containing 0.1% dimethyl sulfoxide was topically treated onto the shaved dorsal skin once a day. As a positive control, 0.1% DEX was administered topically to the shaved area on days 1, 3, 5, 7, and 9 to 16. Physiological saline was treated to the CTR and CYP groups during the experiment. […] on day 17, all mice were sacrificed under anesthesia.
Paraffin tissue sections were hydrated with xylene and ethanol, followed by blocking with 1% bovine serum albumin (BSA). The slides were incubated overnight at 4° C. with primary anti-rabbit keratinocyte growth factor (KGF) antibody. Secondary HRP-conjugated fluorescent antibody was treated onto tissue slides for 1 hour at room temperature.

[10] = tested on: keratinocyte growth factor (KGF); experiment: Immunoblotting of KGF protein expression in skin tissues of CYP-induced alopecia mice; assay type: in vivo, C57BL/6J mice; settings: CIA mice; 100 μM decursin topical; FIG. 4
[11] = tested on: PI3K; experiment: Expression of PI3K in decursin-treated keratinocytes; assay type: cell-based, Human; settings: TNF-α

Compound: CC(C)=CC(=O)O[C@H]1Cc2cc3ccc(=O)oc3cc2OC1(C)C [decursin]
- hair follicle cycle stage (histology) [1]: hair follicles were in the anagen
- shape of the ampulla of hair follicles, compared to CYP group [1]: normalized
- rate of decrease of TNF-α-induced caspase-3 protein level [2]: 30.41%
- hair growth on the dorsal side (dermatoscope), compared to CYP group [3]: hair growth was observed
- expression of AKT [4]: suppression
- rate of decrease of TNF-α-induced caspase-8 protein level [5]: 41.07%
- expression of ERK [6]: suppression
- expression of p38 [7]: suppression
- rate of decrease of TNF-α-induced caspase-7 protein level [8]: 48.27%
- KGF+ expression in the skin tissue (immunofluorescence) ([9]; 1 μM decursin topical): increased
- KGF+ expression in the skin tissue (immunofluorescence) ([9]; 10 μM decursin topical): increased
- KGF+ expression in the skin tissue (immunofluorescence) ([9]; 100 μM decursin topical): increased
- protein expression of KGF in skin tissues [10]: significantly increased
- expression of PI3K [11]: suppression

From US20230157993A1, “PHARMACEUTICAL COMPOSITION FOR TREATING OR PREVENTING ALOPECIA INCLUDING DECURSIN” (University-Industry Cooperation Group of Kyung Hee …, priority 2021, published 2023)
